Among the data in paper PMC4246094, “Exchange Factor EFA6R Requires C-terminal Targeting to the Plasma Membrane to Promote Cytoskeletal Rearrangement through the Activation of ADP-ribosylation Factor 6 (ARF6)” (The Journal of Biological Chemistry, 2014) are IC50 values, retold here.

The target of the test is T1, EFA6R (GFP-EFA6R), isoform B (Homo sapiens, UniProt Q9NYI0).
T1 construct: gene PSD3; full-length isoform B, N-terminal GFP tag (pEGFPC2), transiently expressed in COS7 cells, lysate used; endogenous protein runs at 56 kDa
Put plainly: competition pulldown: displacement from biotinylated PI-avidin beads by soluble diC8 lipid, immunoblot densitometry. The following applies: concentration blocking 50% of binding to PI 4,5-P2 beads (in the methods PI 3,4-P2 beads); cell lysate, pH 7.4, 150 mM NaCl, 0.5% Nonidet P-40, 4 °C; PH domain; read-out: EC50 (the source's name).

T1 sequence (Q9NYI0 1-513 isoform Q9NYI0-3 limits assumed): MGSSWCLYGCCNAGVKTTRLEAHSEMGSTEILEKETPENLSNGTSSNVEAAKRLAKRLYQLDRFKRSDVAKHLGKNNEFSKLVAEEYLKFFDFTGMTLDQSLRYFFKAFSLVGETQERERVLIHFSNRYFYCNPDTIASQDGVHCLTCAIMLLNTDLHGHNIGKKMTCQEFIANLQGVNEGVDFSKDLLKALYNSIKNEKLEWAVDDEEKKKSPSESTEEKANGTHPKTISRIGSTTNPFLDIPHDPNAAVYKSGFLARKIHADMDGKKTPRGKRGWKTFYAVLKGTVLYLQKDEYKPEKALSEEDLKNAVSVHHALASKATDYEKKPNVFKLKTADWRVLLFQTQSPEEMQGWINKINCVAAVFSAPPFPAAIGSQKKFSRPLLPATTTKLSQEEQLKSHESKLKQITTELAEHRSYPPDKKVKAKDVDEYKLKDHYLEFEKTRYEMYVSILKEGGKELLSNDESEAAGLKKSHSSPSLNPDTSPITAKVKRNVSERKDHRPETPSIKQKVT

Take `CCCCCCCC(=O)OC[C@H](COP(=O)(O)O[C@@H]1[C@H](O)[C@H](OP(=O)(O)O)[C@@H](O)[C@H](O)[C@H]1O)OC(=O)CCCCCCC` [PI 3-phosphate]: the IC50 is over 10 µM.

For the compound `CCCCCCCC(=O)OC[C@H](COP(=O)(O)O[C@H]1[C@H](O)[C@@H](O)[C@H](OP(=O)(O)O)[C@@H](OP(=O)(O)O)[C@H]1O)OC(=O)CCCCCCC` [PI 3,4-P2], the IC50 was over 10 µM.

With `CCCCCCCC(=O)OC[C@H](COP(=O)(O)O[C@@H]1[C@H](O)[C@H](O)[C@@H](OP(=O)(O)O)[C@H](OP(=O)(O)O)[C@H]1O)OC(=O)CCCCCCC` [PI 4,5-P2], the IC50 worked out at 1.1 µM.

For the compound `CCCCCCCC(=O)OC[C@H](COP(=O)(O)O[C@H]1[C@H](O)[C@@H](OP(=O)(O)O)[C@H](OP(=O)(O)O)[C@@H](OP(=O)(O)O)[C@H]1O)OC(=O)CCCCCCC` [PI 3,4,5-trisphosphate], the IC50 is over 10 µM.
